Each block holds one compound with its values, some of them ahead of it.
Tests used:
Assay in all cases: Synergistic antimicrobial activity as MIC, 96-well microplate, optical density at 620 nm
Assay type in all cases: cell-based
[1] = test system: Candida albicans ATCC 10231
Excerpt: (§1) 1] with: • MIC of A with B: minimum concentration of product A in the combination A+B which makes it possible to obtain an inhibitory effect; • MIC of B with A: minimum concentration of product B in the combination A+B which makes it possible to obtain an inhibitory effect; • MIC of A: minimum inhibitory concentration of product A alone; • MIC of B: minimum inhibitory concentration of product B alone. This formula was described for the first time in the article by F. C. Kull, P. C. Eisman, H. D. Sylwestrowka, and R. L. Mayer, Applied Microbiology 9:538-541, 1961.
(§2) When the FIC index value is less than or equal to 1, it is considered that the combination of test compounds has a synergistic effect.
The microbial strain Candida albicans ATCC 10231, and a double-concentration Sabouraud broth liquid culture medium were used (i.e. a mixture of 5 g of Phytagel+0.6 g Tween 40+60 g of Sabouraud broth).
(§3) A 96-well microplate at an incubation temperature of 32.5° C. is used.
(§4) The incubation time of the microplate is: • from 24 to 30 h under aerobic conditions for microbial Aspergillus niger ATCC 6275; • from 18 to 24 h under aerobic conditions for Candida albicans ATCC 10231, Pseudomonas aeruginosa ATCC 9027 and Staphylococcus aureus ATCC 6538; • from 24 to 48 h under aerobic conditions for Enterococcus faecalis ATCC 33186. Tests
(§5) A 10% (weight/volume) stock solution was prepared by mixing 1 g of compound in 9 ml of aqueous 1‰ agar solution. Successive dilutions were made with the 1‰ agar solution.
(§6) 50 μl of each of the daughter solutions obtained containing compound A or B are added to the microplate wells. 100 μl of Sabouraud liquid nutrient broth inoculated at double concentration with the Aspergillus niger strain and 50 μl of aqueous 1‰ agar solution are also added thereto.
(§7) 50 μl of each of the daughter solutions obtained containing compound A and 50 μl of each of the daughter solutions obtained containing compound B are added to the microplate wells. 100 μl of Sabouraud liquid nutrient broth inoculated at double concentration with the strain Aspergillus niger are also added thereto.
(§8) A positive microbial growth control was also prepared. The positive microbial growth control corresponds to a mixture of 100 μl of aqueous 1‰ agar solution with 100 μl of Sabouraud liquid nutrient broth inoculated at double concentration with the strain Aspergillus niger in the absence of compounds A and B.
(§9) An absorbance control was performed in parallel on compounds A and B alone. This control corresponds to 100 μl of double concentration sterile Sabouraud liquid nutrient broth+100 μl of double concentration compound A or B.
(§10) In the three cases (absorbance control, growth control and test), the final volume present in each of the microplate wells is 200 μl.
(§11) The test as described above (tests, absorbance control and growth control) was performed again to test the combination A+B on the following strains Enterococcus faecalis, Staphylococcus aureus, Pseudomonas aeruginosa, Candida albicans, where appropriate.

[2] = test system: Staphylococcus aureus ATCC 6538
Excerpt: as §1, §2
The microbial strain Staphylococcus aureus ATCC 6538 and a double-concentration nutrient broth liquid culture medium were used.
as §3, §4, §5, §6, §7, §8, §9, §10
(§12) In the two cases (test and control), the inoculum represents the concentration of the Aspergillus niger strain present in the final volume of the wells (200 μl) and is between 2 and 6×10^5 cfu/ml of Aspergillus niger.
as §11
The following results were obtained with the compound B1=trisodium salt of ethylenediaminedisuccinic acid (as an aqueous solution at 30% by weight): sold under the name Natrlquest E30 by the company Innospec Active Chemicals.

[3] = test system: Aspergillus niger ATCC 6275
Excerpt: as §1
The microbial strain Aspergillus niger ATCC 6275, and a double-concentration Sabouraud broth liquid culture medium supplemented with polyoxyethylenated (20 OE) sorbitan monopalmitate (Tween 40 from Croda) and Phytagel© BioReagent were used (i.e. a mixture of 5 g of Phytagel+0.6 g of Tween 40+60 g of Sabouraud broth).
as §3, §4, §5, §6, §7, §8, §9, §10, §12

[4] = test system: Enterococcus faecalis ATCC 33186
Excerpt: as §1
The microbial strain Enterococcus faecalis ATCC 33186 and a double-concentration BHI (Brain Heart Infusion) broth liquid culture medium were used.
as §3, §4, §5, §6, §7, §8, §9, §10, §11

[5] = 0.0625% A alone (active material weight %)
[6] = first concentration with growth <= 25%

% MIC of B2 alone [1, 6]: 0.68%
Compound: CCCCCC1C(O)CCC1CC(=O)[O-].[Na+] (stereo not drawn) [B2, sodium salt of 3-hydroxy-2-pentylcyclopentaneacetic acid]
microbial growth percentage ([1]; 0.34% B2 alone): 43%
microbial growth percentage ([1]; 0.68% B2 alone): 6%

% MIC of B1 alone [2, 6]: 0.6%
Compound: O=C([O-])C[C@H](NCCN[C@@H](CC(=O)[O-])C(=O)O)C(=O)[O-].[Na+].[Na+].[Na+] [B1, trisodium salt of ethylenediaminedisuccinic acid]
microbial growth percentage ([2]; 0.0375% B1 alone): 97%
microbial growth percentage ([2]; 0.075% B1 alone): 80%
microbial growth percentage ([2]; 0.15% B1 alone): 66%
microbial growth percentage ([2]; 0.3% B1 alone): 37%
microbial growth percentage ([2]; 0.6% B1 alone): 1%

Continued, compound first:

Compound: CCOc1cc(CCC(C)=O)ccc1O [A, 4-(3-ethoxy-4-hydroxyphenyl)butan-2-one]
microbial growth percentage [1, 5]: 76%
microbial growth percentage ([1]; 0.125% A alone): 64%
microbial growth percentage ([1]; 0.25% A alone): 36%
microbial growth percentage ([1]; 0.5% A alone): 5%
% MIC of A alone [1, 6]: 0.5%
microbial growth percentage [2, 5]: 76%
microbial growth percentage ([2]; 0.125% A alone): 72%
microbial growth percentage ([2]; 0.25% A alone): 71%
microbial growth percentage ([2]; 0.5% A alone): 40%
microbial growth percentage ([2]; 1% A alone): −23%
% MIC of A alone [2, 6]: 1%
microbial growth percentage ([3]; 0.025% A alone (weight %)): 44%
microbial growth percentage ([3]; 0.05% A alone): 32%
microbial growth percentage ([3]; 0.1% A alone): 13%
% MIC of A alone [3, 6]: 0.1%
microbial growth percentage [4, 5]: 31%
microbial growth percentage ([4]; 0.125% A alone): 36%
microbial growth percentage ([4]; 0.25% A alone): 39%
microbial growth percentage ([4]; 0.5% A alone): −9%
MIC of product alone [4, 6]: 0.5%

Compound: O=C([O-])CNCO.[Na+] [B4, sodium hydroxymethylglycinate]
microbial growth percentage ([4]; 0.005% B4 alone): 32%
microbial growth percentage ([4]; 0.01% B4 alone): 11%
% MIC of B4 alone [4, 6]: 0.1%

Compound: silver citrate hydrate [B3]
microbial growth percentage ([3]; 0.025% B3 alone): 47%
microbial growth percentage ([3]; 0.05% B3 alone): 40%
microbial growth percentage ([3]; 0.1% B3 alone): 9%
% MIC of B3 alone [3, 6]: 0.1%

— patent publication US12256733B2, “Antimicrobial mixture containing 4-(3-ethoxy-4-hydroxyphenyl)butan-2-one and an acid or silver-based compound, and cosmetic composition containing same” (L'OREAL, priority 2018, dated 2025)
